2 compounds from paper PMC7583942, “Profiling Anticancer and Antioxidant Activities of Phenolic Compounds Present in Black Walnuts (Juglans nigra) Using a High-Throughput Screening Approach” (Molecules, 2020) can be followed below.

pIC50: −log10 of the molar value. Where two headings read alike, the source gives them in different places.

Series [1] relates to tumorigenic alveolar epithelial cells (A549). Briefly: Cell proliferation assay (CellTiter-Glo), A549. Particulars: read-out: Half maximal inhibitory concentration (IC50), A549 Cell Line. It counts as cell-based, human. On the procedure: (§1) An Nrf2 antioxidant response element (ARE) reporter HepG2 cell line, a stably transfected liver cell line expressing a firefly luciferase gene under the control of the ARE, was purchased from BPS Bioscience (San Diego, CA, USA). The human alveolar epithelial cell line A549 and the human lung fibroblast cell line MRC-5 were obtained from American Type Culture Collection (ATCC) (CCL-185 and CCL-171, ATCC, Manassas, VA, USA). The HepG2-ARE cells were grown in modified Eagle’s medium (MEM) supplemented with GlutaMAX, 10% fetal calf serum (FBS) and 600ug/mL Geneticin (Thermo Fisher Scientific, Waltham, MA, USA). […] All cells were grown and maintained at 37 °C in a humidified incubator with 5% CO2. Influence of the phenolic compounds on cell growth in the tumorigenic alveolar epithelial cells (A549) and non-tumorigenic lung fibroblast cell (MRC-5) cell lines was investigated using the CellTiter-Glo® cell viability assay kit (G7571, BioVision, CA, USA), according to the manufacturer’s instructions. […] The cultures were treated with the phenolic compounds and DL-Sulphorane (a known antiproliferative agent as a positive control) at 7 final concentrations (as mentioned above) and a vehicle (0.35% DMSO). After 72h of incubation, CellTiter-Glo Luminescent assay reagent (Promega) was dispensed at a volume of 10 µL per well into the 384-well plates for 10 min using the Matrix Wellmate dispenser (Thermo Fisher Scientific). The plates were allowed to incubate at room temperature for 20 min and then the luminescence was read using an Enspire microplate reader (Perkin Elmer Inc.) The relative cytotoxicity (%) of the phenolic compounds was calculated by dividing the specific luminescence absorbance of the treated sampled by the specific luminescence absorbance of the control sample and multiplying by 100. The control sample (in the presence of DMSO vehicle and without the compounds) was set at 100%. Non-linear regression analysis of data was performed to identify the dose-response curve for each compound. The IC50 values (half maximal inhibitory concentration) of each compound were determined from the dose-response curve for the A549 and MRC-5 cell lines using GraphPad Prism 8.
In general terms: Cellular ATP, detected with luciferase, serves as a proxy for viable cell number.

A short description of series [2]: Total antioxidant capacity (TAC) colorimetric assay. Particulars: for Fold-Increase Over Trolox: coefficient of compound model divided by coefficient of Trolox control; for total antioxidant capacity compared with the control (Trolox): in words; for Slope (in Trolox Equivalents): linear regression of dose-response, 7 concentrations, Cu2+ reagent, 1.5 h, absorbance 570 nm. On the procedure:
The antioxidant capacity of the phenolic compounds was evaluated using a total antioxidant capacity (TAC) colorimetric assay kit (K274-100, BioVision, CA, USA), according to the manufacturer’s instructions. Briefly, the phenolic compounds tested at 7 concentrations (as described above) were added to 384-well plates. Subsequently, Cu^2+ working solution (12.5 µL/ well) was added into the sample wells. The 384-well plates were incubated for 1.5 h at room temperature and the absorbance of the samples was then read at 570 nm using a microplate reader (Enspire, Perkin Elmer Inc., Waltham, MA, USA). Trolox was used to standardize the antioxidant capacity, as recommended by the manufacturer. A Trolox standard curve was included, and the total antioxidant capacity of the phenolic compounds was interpolated and expressed as Trolox equivalent (mM) from a seven-parameter logistic curve of the Trolox control using curve-fitting software.
For total antioxidant capacity analysis, linear regression analysis was performed to identify the linear regression equation for each compound using GraphPad Prism 8 (San Diego, CA, USA). The coefficient of the compound equation was compared with the coefficient of the Trolox control to determine the relative total antioxidant capacity of each compound. Fold-increase over Trolox was calculated by dividing the coefficient of the compound models by the coefficient of the Trolox control.

Series [3] has as its system antioxidant response element (ARE) in HepG2-ARE cells. Briefly: Antioxidant response element (ARE) activation, Steady-Glo luciferase reporter assay. It counts as cell-based, human. On the procedure: An Nrf2 antioxidant response element (ARE) reporter HepG2 cell line, a stably transfected liver cell line expressing a firefly luciferase gene under the control of the ARE, was purchased from BPS Bioscience (San Diego, CA, USA). The human alveolar epithelial cell line A549 and the human lung fibroblast cell line MRC-5 were obtained from American Type Culture Collection (ATCC) (CCL-185 and CCL-171, ATCC, Manassas, VA, USA). The HepG2-ARE cells were grown in modified Eagle’s medium (MEM) supplemented with GlutaMAX, 10% fetal calf serum (FBS) and 600ug/mL Geneticin (Thermo Fisher Scientific, Waltham, MA, USA). The tumorigenic alveolar epithelial cells (A549) and non-tumorigenic lung fibroblast cells (MRC-5) were grown in RPMI medium supplemented with 10% FBS. All cells were grown and maintained at 37 °C in a humidified incubator with 5% CO2.
The impact of the phenolic compounds on ARE activation in the HepG2-ARE cell line was evaluated using Steady-Glo® Luciferase assay system (E2510, Promega, Madison, WI, USA), following the manufacturer’s instructions. In brief, the HepG2 -ARE cells were seeded at a density of 10,000 cells/well in 384-well plates containing 50 µL of the complete media per well using a Multidrop Combi dispenser (Thermo Fisher Scientific, Waltham, MA, USA) and then the plate cultures were incubated at 37 °C in a 5% CO2 humidified incubator for 20 h. The HepG2-ARE cells were incubated with compounds for 18 h. The known ARE activator TBHQ was used as a positive control and the cells treated with 0.35% DMSO and without compounds tested served as a vehicle control. The cells in the absence of DMSO and the compounds were utilized for measuring the background luminescence. The reporter activity was measured by the addition of 25 µL Steady-Glo® luciferase assay reagent (Promega) for 30 min using the Multidrop Combi dispenser (Thermo Fisher Scientific). The luminescence intensities of the 384-well plates were read on Enspire microplate reader (Perkin Elmer Inc.). Percent cytotoxicity of compounds was normalized to the positive and negative controls on each assay plate.
The ARE fold induction of the compounds was measured by dividing the luminescence absorbance of the treatment by the specific luminescence absorbance of the control sample and multiplying by 100. The control sample (in the presence of DMSO vehicle and without the compounds) was set at 100%.
Background: A reporter such as luciferase makes a cellular process visible.

Series [4] deals with non-tumorigenic lung fibroblast cells (MRC-5). Kind of series: Cell proliferation assay (CellTiter-Glo), MRC-5. It counts as cell-based, human. Particulars: read-out: Half maximal inhibitory concentration (IC50), MRC-5 Cell Line. As to the method:
as §1

Take `Oc1cc(O)c2c(c1)O[C@H](c1ccc(O)c(O)c1)[C@H](O)C2` [(−)-Epicatechin]: the pIC50 in series [1] (Homo sapiens, A549, 72 h incubation) is less than 3.60. Also, in series [2], the “Fold-Increase Over Trolox” value amounted to 3.7, the “total antioxidant capacity compared with the control (Trolox)” value is “higher” and the “Slope (in Trolox Equivalents)” value is recorded as 0.003729 ± 7.546 × 10^−5. Moreover, the “ARE activation among all compounds (rank in words)” value in series [3] (HepG2-ARE cells, 18 h) was “strongest”. Moreover, in series [4] (Homo sapiens, MRC5, 72 h incubation), the pIC50 is less than 3.60.
Take `O=c1c(O[C@@H]2O[C@H](CO)[C@@H](O)[C@H](O)[C@H]2O)c(-c2ccc(O)c(O)c2)oc2cc(O)cc(O)c12` [Quercetin 3-β-D-glucoside]: the pIC50 in series [1] (72 h incubation) was 5.16. Further, in series [2], the “Fold-Increase Over Trolox” value came out at 2.9, the “total antioxidant capacity compared with the control (Trolox)” value is given as “higher” and the “Slope (in Trolox Equivalents)” value is reported as 0.002908 ± 1.522 × 10^−4. Further, in series [3] (at high concentrations, did not induce ARE activation), the “toxicity to HepG2-ARE cells” value is listed as “toxic to cells”. The pIC50 in series [4] (72 h incubation) was 4.92.
